{
  "source": "patent US7456018B2",
  "about": "“Human hepatoma lines, methods for obtaining same and uses thereof” (priority 2001, dated 2008)",
  "key": {"HBV [1]": {"tested_on": "HBV", "experiment": "Antiviral activity of 3TC on HBV-infected HepaRG cells, viral DNA by Amplicor-Monitor test", "assay_type": "cell-based, hepatitis B virus", "conditions": "day 8 to 15 after infection, vs infected non-treated control", "method": "(§1) The cells are maintained and infected according to the protocols of Examples 1 and 5.\n[…] A complete replenishment of the medium is carried out every two days. The supernatants are stored at −20° C. and the cell pellets at −80° C.\nThe viral DNA present in the culture supernatant could be detected and quantified by the Amplicor-Monitor test (ROCHE). The results are expressed as number of viral particles/ml. For the analysis of intracellular viral DNA, the cells were separated with trypsin and stored at −80° C. The total DNA was isolated according to the protocol described previously (Zoulim et al., 1998, Drug therapy for chronic hepatitis B virus replication. J. Hepatol. 29:151-168)."}, "HBV [2]": {"tested_on": "HBV", "experiment": "HBs antigen in culture supernatant of HBV-infected HepaRG cells treated by 3TC (ELISA)", "assay_type": "cell-based, hepatitis B virus", "conditions": "after 8 days of treatment by 3TC, all doses", "method": "as §1\nThe antiviral treatment by 3TC is administered from the 8th day to the 15th day following the infection of the HepaRG cells, at final concentrations of 0.1 and 10 μM in the culture medium. A complete replenishment of the medium is carried out every two days. The supernatants are stored at −20° C. and the cell pellets at −80° C.\nThe viral antigen (HBs) was detected in the culture supernatant using the commercial ELISA test ETI-MAK-3® (SORIN)."}, "HepaRG cells [3]": {"tested_on": "HepaRG cells", "experiment": "Biliary/hepatocyte route differentiation of HepaRG cells, in situ marking (indirect immunohistochemistry)", "assay_type": "cell-based, human", "parameters": "Cytokeratin 19 expression: key: −/+: weakly positive; +: positive; ++: highly positive", "conditions": "HepaRG cells treated with 2% DMSO or 3.75 mM sodium butyrate", "method": "HepaRG cells were separated, diluted to ⅕ in Williams' E medium to which 5 μg/ml of insulin, 100 U/ml of penicillin, 100 μg/ml of streptomycin, 510-5M of hydrocortisone hemisuccinate, 2 mM of L-glutamine and 10% FCS were added, then redistributed into wells with a plastic support. Four culture conditions were produced: • HepaRG cells were treated with 3.75 mM sodium butyrate in the maintenance medium as from the day following subculture according to the protocol described by Blouin et al. (1995, Specialization switch in differentiating embryonic rat liver progenitor cells in response to sodium butyrate, Exp. cell res., 217: 22-33). The medium is then replenished every 2-3 days, • the HepaRG cells were treated 5 days after subculture by 3.75 mM sodium butyrate or 2% DMSO. The medium was replenished every day for 5 days, • the HepaRG cells were treated at strong confluence by 3.75 mM sodium butyrate; the medium was replenished every 2-3 days, • the HepaRG cells were seeded on a plastic support or monolayer of rat primitive biliary epithelial cells in MEM alpha medium complemented with L-glutamine (2 mM), i-inositol (0.2 mM), folic acid ([…]), β-mercaptoethanol (10^−4 M), transferrin 200 μg/ml, 12.5% FCS and 12.5% horse serum. In certain situations, cytokines such as LIF, IL-3, SCF or G-CSF were added to the medium. This medium was replenished every 2-3 days. Indirect Immunohistochemistry\nThe cells after washing with PBS are fixed by a solution of 4% paraformaldehyde buffered by 0.1 M sodium cacodylate at pH 7.4 for 20 minutes at 4° C. They are then preserved in a PBS buffer until the time of the analysis.\nThe specific sites are saturated for 45 minutes with PBS containing 10% FCS. The samples are then treated with primary antibodies for an hour at ordinary temperature in PBS containing 0.05% saponin. After 3 washings in PBS containing 0.05% saponin, the samples are incubated with the second antibody coupled to peroxydase.\nThe morphological modifications observed in the presence of sodium butyrate are correlated to phenotypical changes (Blouin et al. 1995). We used four markers of differentiation towards the biliary route, γ-glutamyl transferase, the α6 chain of integrins and the cytokeratins 7 and 19 which normally disappear when the cells are directed towards the hepatocyte route. For differentiation towards the hepatocyte route, we looked for an increase in the expression of albumin and a reduction in the expression of the al chain of the integrins."}, "HepaRG cells [4]": {"tested_on": "HepaRG cells", "experiment": "Toxicity of DMSO to HepaRG cells without corticoid", "assay_type": "cell-based, human", "conditions": "2% of DMSO, HepaRG cells in the absence of corticoid", "method": "A first series of experiments was carried out in order to study the effects of the absence of the corticoid on cells having always been maintained in its presence. In FIG. 9A, the HepaRG cells at passage 13, were kept for 2 additional passages either in the continuous presence of hydrocortisone (growth: HN), or in the absence of hydrocortisone (growth: HO). They were then induced to differentiate (diff.) for 3 weeks in the absence of hydrocortisone (HO) or in the presence of hydrocortisone 5×10^−5 M (HN), and in the presence of different concentrations of DMSO.\nThe withdrawal of the corticoid was carried out at confluence, i.e. at the time when the cells begin their differentiation.\nThe cells are kept in a culture medium without corticoid and their ability to carry out differentiation is tested after 2 (FIG. 9A) and 10 passages (FIG. 9B)."}, "HBV [5]": {"tested_on": "HBV", "experiment": "Infectability of HepaRG cells by HBV according to culture/differentiation medium, HbsAg secretion", "assay_type": "cell-based, hepatitis B virus", "method": "The cells used for the infection are cells having been cultured according to the conditions defined in Example 1 (permanent presence of 5.10^−5M of hydrocortisone hemisuccinate) and having been maintained for a week at confluence, then for 2 weeks in the same medium with 2% of DMSO added.\nThese cells are incubated with the infectious source, diluted 10 times, in the culture medium with 4% of PEG 8000 (Sigma) added, for 20 hours at 37° C. The second part of this HBV infection protocol was established by Gripon et al., 1993, Virology, 192: 534-540.\nAt the end of the incubation, the cells are washed three times with culture medium and maintained in the presence of 2% of DMSO and 5.10^−5 M of hydrocortisone hemisuccinate until they are used.\nThe HBs antigen was detected in the medium using the ELISA kit (Monolisa AgHBs plus®) from Biorad Laboratories. The results are expressed in pg/ml of supernatant.\nThe ability of the HepaRG cells to be infected was studied as a function of their degree of differentiation. Using the methods described in Examples 1 and 2, the cell differentiation programme was modified.\nA first series of infection was carried out on cells continually maintained in the presence of corticoid only, then in the presence of corticoid and different concentrations of DMSO, in order to induce different stages of differentiation.\nThis correlation was confirmed by a series of experiments carried out on cells infected at confluence (before their differentiation) then placed under optimum conditions in order to induce their differentiation.\nFinally, the effectiveness of an infection carried out on undifferentiated cells multiplying actively was compared with that on cells with arrested growth and well-differentiated."}, "HCV": {"tested_on": "HCV", "experiment": "Sensitivity of HCV replication in infected HepaRG cells to interferon α, viral RNA by RT-PCR", "assay_type": "cell-based", "conditions": "5 U.I./ml", "method": "These cells are incubated for 48 hours at 37° C. with the infectious source, diluted 10 times, in the culture medium devoid of FCS and optionally with PEG 8000 (Sigma) added.\nThe replicative forms of the intracellular viral RNAs were isolated in all the cell lysates. The cells are recovered after separation with trypsin, then the total RNA is extracted using the High Pure RNA Isolation kit (Roche). The quantity of total RNA extracted is estimated by optical density in order to standardize the different samples. The quality and homogeneity of the RNAs are examined by visualizing the ribosomic RNAs (rRNA: 28S and 18S) on a 1% agarose gel stained with ethidium bromide.\nThe RNAs of the viral particles are extracted from the culture supernatant using the High Pure viral RNA kit (Roche).\nBy retrotranscription (RT), the complementary DNA (cDNA) of the viral RNAs of positive polarity is synthesized from a specific prime hybridizing at 5′ of the region which codes for the viral capsid protein. This oligonucleotide (5′-[…]-3′), designated as SEQ ID NO:1, derived from that described by Martell et al., 1999, Journal of Clinical Microbiology, 37: 327-332 , designated C-342. The cDNA is then amplified by the “Polymerase Chain Reaction” (PCR) technique using two primers hybridizing in the 5′ non-translated region of the viral genome. The primers used are as follows: the sense oligonucleotide (5′-TGAGTGTCGTRCAGCCTCC-3′), designated as SEQ ID NO:2, and the antisense oligonucleotide (5′-[…]-3′), designated as SEQ ID NO:3, which corresponds to that conceived by Mercier et al., 1999, Journal of Virological Methods, 77 1-9, designated NCR-3. The amplification product (amplicon of 190 pb) is visualized on a 2% agarose gel stained with ethidium bromide. A marker of molecular weight of DNA (M) is also deposited in order to verify the identity of the amplicon by its size. The effectiveness of the different stages is always controlled by detecting the viral RNA present in a standard (T+), which corresponds to a diluted serum, originating from an infected patient. […]"}},
  "note": "“Also recorded” adds a separate entry of the source. For Albumin expression in this document: key: −/+: weakly positive; +: positive; ++: highly positive. For Cytokeratin 7 expression in this document: key: −/+: weakly positive; +: positive; ++: highly positive. For α1 chain expression in this document: key: −/+: weakly positive; +: positive; ++: highly positive. For γ-glutamyl transferase expression in this document: key: −/+: weakly positive; +: positive; ++: highly positive.",
  "data": [
    {"molecule": "Nc1ccn([C@@H]2CS[C@H](CO)O2)c(=O)n1", "note": "[3TC]", "values": [
      {"measurement": "Inhibition (quantity of viral DNA)", "setting": "HBV [1]; 3TC 0.1 μM", "value": 69},
      {"measurement": "Inhibition (quantity of viral DNA)", "setting": "HBV [1]; 3TC 1 μM", "value": 98},
      {"measurement": "Inhibition (quantity of viral DNA)", "setting": "HBV [1]; 3TC 10 μM", "value": 100},
      {"measurement": "HBs antigen in the culture supernatant", "setting": "HBV [2]", "value": "constant whatever the dose and equal to the non-treated control"}
    ]},
    {"molecule": "C[S+](C)[O-]", "note": "[DMSO]", "values": [
      {"measurement": "Albumin expression", "setting": "HepaRG cells [3]", "value": "++"},
      {"measurement": "α1 chain expression", "setting": "HepaRG cells [3]", "value": "+"},
      {"measurement": "γ-glutamyl transferase expression", "setting": "HepaRG cells [3]", "value": "−/+"},
      {"measurement": "Toxicity of the addition of DMSO", "setting": "HepaRG cells [4]", "value": "so toxic that its use is impossible; also recorded: highly toxic"},
      {"measurement": "HbsAg secretion", "setting": "HBV [5]; DMSO 1% in differentiation medium after day 17, infection on day 15, supernatant 47 days after seeding", "value": 70, "unit": "pg/mL"},
      {"measurement": "HbsAg secretion", "setting": "HBV [5]; DMSO 1% in differentiation medium after day 17, infection on day 28, supernatant 47 days after seeding", "value": 214, "unit": "pg/mL"},
      {"measurement": "HbsAg secretion", "setting": "HBV [5]; DMSO 2% in differentiation medium after day 17, infection on day 15, supernatant 47 days after seeding", "value": 79, "unit": "pg/mL"},
      {"measurement": "HbsAg secretion", "setting": "HBV [5]; DMSO 2% in differentiation medium after day 17, infection on day 28, supernatant 47 days after seeding", "value": ">2000", "unit": "pg/mL"}
    ]},
    {"molecule": "CCCC(=O)[O-].[Na+]", "note": "[Sodium butyrate, sodium butyrate]", "values": [
      {"measurement": "Albumin expression", "setting": "HepaRG cells [3]", "value": "−/+"},
      {"measurement": "Cytokeratin 7 expression", "setting": "HepaRG cells [3]", "value": "+"},
      {"measurement": "Cytokeratin 19 expression", "setting": "HepaRG cells [3]", "value": "++"},
      {"measurement": "α1 chain expression", "setting": "HepaRG cells [3]", "value": "−/+"},
      {"measurement": "α6 chain expression", "setting": "HepaRG cells [3]", "value": "+"},
      {"measurement": "γ-glutamyl transferase expression", "setting": "HepaRG cells [3]", "value": "++"}
    ]},
    {"molecule": "hydrocortisone hemisuccinate [HN]", "values": [
      {"measurement": "HbsAg secretion", "setting": "HBV [5]; culture HN, HN after 17th day, infection D3 (growth), 47 days after seeding", "value": 33, "unit": "pg/mL"},
      {"measurement": "HbsAg secretion", "setting": "HBV [5]; culture HN, HN after 17th day, infection D5 (growth), 47 days after seeding", "value": 37, "unit": "pg/mL"},
      {"measurement": "HbsAg secretion", "setting": "HBV [5]; culture HN, HN after 17th day, infection D10 (confluence), 47 days after seeding", "value": 93, "unit": "pg/mL"},
      {"measurement": "HbsAg secretion", "setting": "HBV [5]; culture HN, HN with 2% of DMSO after 17th day, infection D3 (growth), 47 days after seeding", "value": 41, "unit": "pg/mL"},
      {"measurement": "HbsAg secretion", "setting": "HBV [5]; culture HN, HN with 2% of DMSO after 17th day, infection D5 (growth), 47 days after seeding", "value": 84, "unit": "pg/mL"},
      {"measurement": "HbsAg secretion", "setting": "HBV [5]; culture HN, HN with 2% of DMSO after 17th day, infection D10 (confluence), 47 days after seeding", "value": 171, "unit": "pg/mL"}
    ]},
    {"molecule": "interferon α: antiviral cytokine (Introna®, Schering-Plough, France)", "values": [
      {"measurement": "Extracellular viral RNA, kinetics", "setting": "HCV; after four days of incubation, Day 10 to Day 12", "value": "no extracellular viral RNA is detected"},
      {"measurement": "Viral RNA signal in the extracellular medium", "setting": "HCV; six days of treatment, 12th day after infection", "value": "complete disappearance of the signal"},
      {"measurement": "Drop of the intracellular viral RNA signal", "setting": "HCV; six days of treatment, 12th day after infection, serum No. 4", "value": "more than 60%"}
    ]}
  ]
}
